Assay results: ChEMBL document CHEMBL3085626, “Synthesis and evaluation of multi-target-directed ligands against Alzheimer's disease based on the fusion of donepezil and ebselen” (J Med Chem, 2013)
The source made the active and inactive calls. The rule behind the calls is not given here.

Key:
[1] = target: T1, Acetylcholinesterase (Electrophorus electricus, UniProt O42275)
Description: Inhibition of electric eel AChE using acetylthiocholine chloride as substrate preincubated for 15 mins followed by substrate addition measured every 1 min by Ellman's method

[2] = target: Cholinesterase (Equus caballus, UniProt P81908)
Description: Inhibition of equine serum BuChE using butyrylthiocholine chloride as substrate preincubated for 15 mins followed by substrate addition measured every 1 min by Ellman's method

[3] = target: Acetylcholinesterase (Homo sapiens, UniProt P22303); experiment: Inhibition of human erythrocyte AChE using acetylthiocholine chloride as substrate preincubated for 15 mins followed by substrate addition measured every 1 min by Ellman's method
[4] = in vitro; settings: PAMPA
Description: Effective permeability of the compound at 5 mg/mL after 10 hrs by PAMPA

[5] = system: Mus musculus; experiment: Acute toxicity in KM mouse assessed as effect on food consumption up to 2000 mg/kg, po after 4 hrs; type: organism-based; parameters: dose 2000 mg/kg, route oral; settings: in vivo
[6] = system: Mus musculus; experiment: Acute toxicity in KM mouse assessed as effect on body weight up to 2000 mg/kg, po after 4 hrs; type: organism-based; parameters: dose 2000 mg/kg, route oral; settings: in vivo
[7] = system: Mus musculus; experiment: Acute toxicity in KM mouse assessed as mortality up to 2000 mg/kg, po after 24 hrs; type: organism-based; parameters: dose 2000 mg/kg, route oral; settings: in vivo
[8] = target: T1, Acetylcholinesterase; experiment: […] inhibition of electric eel AChE using acetylthiocholine chloride as substrate preincubated for 15 mins followed by substrate addition by Lineweaver-Burk plot analysis
[9] = Acute toxicity in po dosed KM mouse measured for 14 days; type: organism-based; settings: in vivo
[10] = system: Mus musculus; experiment: Acute toxicity in KM mouse assessed as effect on water consumption up to 2000 mg/kg, po after 4 hrs; type: organism-based; parameters: dose 2000 mg/kg, route oral; settings: in vivo
[11] = target: Acetylcholinesterase (Electrophorus electricus) (UniProt O42275); experiment: Mixed-type inhibition of electric eel AChE using acetylthiocholine chloride as substrate preincubated for 15 mins followed by substrate addition by Lineweaver-Burk plot analysis
Chain of Acetylcholinesterase (Electrophorus electricus) (O42275 24-633 limits assumed): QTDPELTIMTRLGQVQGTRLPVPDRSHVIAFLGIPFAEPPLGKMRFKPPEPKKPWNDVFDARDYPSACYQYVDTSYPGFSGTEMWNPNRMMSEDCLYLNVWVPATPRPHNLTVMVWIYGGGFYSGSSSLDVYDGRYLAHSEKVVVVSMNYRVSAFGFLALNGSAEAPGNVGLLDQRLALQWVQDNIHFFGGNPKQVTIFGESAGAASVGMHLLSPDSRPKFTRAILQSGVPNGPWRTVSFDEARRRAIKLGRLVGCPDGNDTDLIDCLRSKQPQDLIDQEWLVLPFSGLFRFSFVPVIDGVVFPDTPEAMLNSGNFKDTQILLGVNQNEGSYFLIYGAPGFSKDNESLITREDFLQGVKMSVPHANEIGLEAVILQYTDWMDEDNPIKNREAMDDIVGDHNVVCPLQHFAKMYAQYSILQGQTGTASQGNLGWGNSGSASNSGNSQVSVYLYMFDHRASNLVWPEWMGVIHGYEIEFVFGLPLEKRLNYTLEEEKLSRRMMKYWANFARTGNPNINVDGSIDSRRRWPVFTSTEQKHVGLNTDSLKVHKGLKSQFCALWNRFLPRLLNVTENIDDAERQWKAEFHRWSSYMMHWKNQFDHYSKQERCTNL

Chain of Cholinesterase (P81908 whole entry): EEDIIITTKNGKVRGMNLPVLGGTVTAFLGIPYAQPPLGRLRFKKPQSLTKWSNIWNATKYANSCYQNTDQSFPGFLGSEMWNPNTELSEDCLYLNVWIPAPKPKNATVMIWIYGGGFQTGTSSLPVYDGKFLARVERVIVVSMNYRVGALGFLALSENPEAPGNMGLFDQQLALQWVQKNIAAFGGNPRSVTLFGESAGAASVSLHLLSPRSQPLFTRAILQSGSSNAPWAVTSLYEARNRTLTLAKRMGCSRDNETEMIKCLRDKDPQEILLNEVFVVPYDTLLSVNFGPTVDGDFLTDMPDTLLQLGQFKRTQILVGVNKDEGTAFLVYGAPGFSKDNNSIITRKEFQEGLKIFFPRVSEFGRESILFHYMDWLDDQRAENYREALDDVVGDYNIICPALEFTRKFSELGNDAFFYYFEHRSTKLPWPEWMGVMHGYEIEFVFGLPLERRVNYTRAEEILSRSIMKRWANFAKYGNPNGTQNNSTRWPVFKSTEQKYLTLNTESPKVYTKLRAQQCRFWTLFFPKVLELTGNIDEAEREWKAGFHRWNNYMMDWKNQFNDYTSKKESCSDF
Chain of Acetylcholinesterase (Homo sapiens, UniProt P22303) (P22303 whole entry): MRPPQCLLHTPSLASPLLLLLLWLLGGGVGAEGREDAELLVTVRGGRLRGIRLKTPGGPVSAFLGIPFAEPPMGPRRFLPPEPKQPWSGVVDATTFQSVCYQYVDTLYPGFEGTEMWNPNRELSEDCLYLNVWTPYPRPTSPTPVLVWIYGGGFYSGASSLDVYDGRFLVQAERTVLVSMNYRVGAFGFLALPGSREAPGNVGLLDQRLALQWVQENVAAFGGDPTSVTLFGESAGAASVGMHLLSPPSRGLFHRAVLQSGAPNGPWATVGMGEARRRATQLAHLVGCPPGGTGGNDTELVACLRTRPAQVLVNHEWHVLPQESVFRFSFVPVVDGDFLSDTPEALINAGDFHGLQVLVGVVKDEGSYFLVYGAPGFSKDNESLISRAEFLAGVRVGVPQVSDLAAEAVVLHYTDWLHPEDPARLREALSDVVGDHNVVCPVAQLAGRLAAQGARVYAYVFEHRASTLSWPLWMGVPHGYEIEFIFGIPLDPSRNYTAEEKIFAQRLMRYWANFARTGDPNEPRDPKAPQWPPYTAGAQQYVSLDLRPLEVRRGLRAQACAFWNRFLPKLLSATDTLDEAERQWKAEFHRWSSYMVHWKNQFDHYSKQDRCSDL
T1 sequence (O42275 whole entry): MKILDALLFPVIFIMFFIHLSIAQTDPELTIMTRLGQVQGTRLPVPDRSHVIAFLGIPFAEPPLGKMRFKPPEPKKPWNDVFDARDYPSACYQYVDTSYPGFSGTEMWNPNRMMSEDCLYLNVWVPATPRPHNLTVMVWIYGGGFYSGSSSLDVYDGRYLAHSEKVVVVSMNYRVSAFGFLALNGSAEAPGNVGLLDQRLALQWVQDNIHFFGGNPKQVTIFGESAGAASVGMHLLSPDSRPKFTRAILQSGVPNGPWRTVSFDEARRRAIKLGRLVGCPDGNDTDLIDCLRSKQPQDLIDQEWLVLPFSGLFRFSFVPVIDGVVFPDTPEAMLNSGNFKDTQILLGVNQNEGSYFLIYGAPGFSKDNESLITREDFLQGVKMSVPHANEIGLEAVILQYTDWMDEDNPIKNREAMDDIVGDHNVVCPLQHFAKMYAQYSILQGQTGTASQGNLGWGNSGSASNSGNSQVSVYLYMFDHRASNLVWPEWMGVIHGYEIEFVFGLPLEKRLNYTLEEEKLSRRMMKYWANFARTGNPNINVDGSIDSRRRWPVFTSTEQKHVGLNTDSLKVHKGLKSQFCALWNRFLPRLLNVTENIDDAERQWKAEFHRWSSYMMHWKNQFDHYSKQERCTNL

Row | Compound | IC50 [1] [µM] | IC50 [2] [µM] | other results
1 | O=c1c2ccc(Cl)cc2[se]n1CCC1CCN(Cc2ccccc2)CC1 | 0.206 | 2.35 | 
2 | COc1cc2[se]n(CCCCC3CCN(Cc4ccccc4)CC3)c(=O)c2cc1OC | 0.038 | 0.517 | IC50 [3]: 0.103 µM; Papp at 10 h, 5 mg/mL [4]: 15.8 ×10⁻⁶ cm/s
3 | O=c1c2ccc(F)cc2[se]n1CCC1CCN(Cc2ccccc2)CC1 | 0.224 | 3.67 | 
4 | O=c1c2ccc(Cl)cc2[se]n1C1CCN(Cc2ccccc2)CC1 | 10.1 | 21.5 | 
5 | COc1cc2c(cc1OC)[Se](=O)N(CCC1CCN(Cc3ccccc3)CC1)C2=O (stereo unspecified) | 0.043 | 1.36 | IC50 [3]: 0.163 µM
6 | O=c1c2ccc(F)cc2[se]n1C1CCN(Cc2ccccc2)CC1 | 19.7 | 10.6 | 
7 | O=c1c2ccc(Cl)cc2[se]n1CC1CCN(Cc2ccccc2)CC1 | 6.16 | 2.3 | 
8 | O=c1c2ccc(F)cc2[se]n1CC1CCN(Cc2ccccc2)CC1 | 12.3 | 3.46 | 
9 | COc1cc2[se]n(C3CCN(Cc4ccccc4)CC3)c(=O)c2cc1OC | 11.8 | 9.46 | 
10 | O=c1c2ccccc2[se]n1C1CCN(Cc2ccccc2)CC1 | 17.6 | 8.32 | 
11 | COc1cc2[se]n(CCCC3CCN(Cc4ccccc4)CC3)c(=O)c2cc1OC | 0.072 | 1.5 | IC50 [3]: 0.231 µM; Papp at 10 h, 5 mg/mL [4]: 10.3 ×10⁻⁶ cm/s
12 | O=c1c2ccccc2[se]n1CC1CCN(Cc2ccccc2)CC1 | 19.8 | 3.63 | 
13 | COc1cc2[se]n(CC3CCN(Cc4ccccc4)CC3)c(=O)c2cc1OC | 4.23 | 3.92 | 
14 | O=c1c2ccccc2[se]n1-c1ccccc1 [EBSELEN] | 41 | 10.4 | 
15 | COc1cc2[se]n(CCC3CCN(Cc4ccccc4)CC3)c(=O)c2cc1OC | 0.042 | 1.59 | Activity [5]: Non-toxic; Activity [6]: Non-toxic; Activity [7]: Non-toxic; IC50 [3]: 0.097 µM; Ki [8]: 0.017 µM; Papp at 10 h, 5 mg/mL [4]: 8.6 ×10⁻⁶ cm/s; MTD at 336 h [9]: 2000 mg/kg; Activity [10]: Non-toxic; inhibition [11]: Active
16 | O=c1c2ccccc2[se]n1CCC1CCN(Cc2ccccc2)CC1 | 0.382 | 2.13 | 
